Our source for the PKC activity values is patent US20050020662A1, “Inhibition of PKC to treat permability failure” (Joslin Diabetes Center, Inc., a Massachusetts corporation, priority 1999, published 2005).

The experiment deals with PKC. Description: PKC activity of primary human mesothelial cells. Type of experiment: cell-based. As to conditions: human mesothelial cells exposed to vitamin E, low or high (150 mM) glucose, presence or absence of PMA (FIG. 2). On the procedure: The PKC activity was determined in the presence or absence or PMA, an activator of PKC. […] The mesothelial cells were exposed to low or high (150 mM) levels of glucose in the presence or absence of PMA, an activator of PKC, and the presence or absence of vitamin E, a PKC inhibitor. […] The PKC activity was determined in the presence or absence or PMA, an activator of PKC. […] These concentrations of glucose are standard for dialysis. […] It has been reported that activation of these pathways increases fibrosis. […] Therefore, inhibition of PKC can decrease fibrosis and reduce or prevent permeability failure of the peritoneal membrane.

For vitamin E, the PKC activity result was “decrease of PKC activity”.
